Tests used:
[1] = test system: Human MSCs; experiment: Flow cytometry surface staining (CD34, CD45, CD43, CD133) of MSCs undergoing hematopoietic transdetermination; format: cell-based
Excerpt: The following antibodies were used for flow cytometry and western blotting experiments respectively: mouse anti-human CD34-APC (130-046-703, Miltenyi), mouse anti-human CD45-FITC (130-080-202, Miltenyi), mouse anti-human CD133/2 (293C3)-PE (130-090-853, Miltenyi), mouse anti-human CD43-FITC (560978, BD biosciences), mouse APC isotype control (555751, BD biosciences), mouse FITC isotype control (555748, BD biosciences), The TGFβRI SB431542 (S4317, Sigma-Aldrich) and MEK/ERK U0126 (U120, Sigma-Aldrich) inhibitors were diluted in DMSO accordingly to the manufacturers' instruction and used at a final concentration of 25 and 10 μM respectively during the duration of the experiments with media changes every second day unless otherwise stated. Equal concentration of the solvent alone was used as a negative control.
Human OE-MSC and MSC-AT cells (passage 7) were infected (day 0) with pMX-based retroviruses by spinfection of the cells at 1850 rpm for 1 hour in the presence of polybrene (4 μg/ml). Cells were maintained in the retroviruses-containing media for 12 hours and then the media was removed and replaced by the cell-specific culture medium. Twenty four hours after the first infection (day 1), a second round of infection was performed. The day after (day 2), cells were maintained in their respective media for 24 hours before being switched to a Wicell media containing DMEM/F12 (Invitrogen) supplemented with 20% Knockout Serum Replacement (Invitrogen), 1 mM L-glutamine, 0.1 mM non-essential aminoacids, […] β-mercaptoethanol and 10 ng/ml bFGF.
Human MSCs undergoing hematopoietic transdetermination were harvested at the indicated time points. Cells were washed once with PBS and further incubated with the corresponding antibodies in the presence of FACS blocking buffer (1×PBS/10% FCS) for 1 hour on ice in the absence of light. After incubation, cells were washed three times with 1 ml FACS blocking buffer and resuspended in a total volume of 200 μl prior to analysis. A minimum of 10,000 living cells were analyzed.
2.5 μg of recombinant human Sox2-TAT (110-03T, Peprotech) was added to the culture media every 12 hours prior to analysis of transdetermination.

[2] = test system: Human MSCs; experiment: Real time PCR (RT-PCR) analysis of hematopoietic and pluripotency marker mRNA; format: cell-based
Procedure: Total RNA was isolated using Trizol Reagent (Invitrogen) according to the manufacturer's recommendations. 1 μg of DNAse1 (invitrogen) treated total RNA was used for cDNA synthesis using the SuperScript II Reverse Transcriptase kit for RT-PCR (Invitrogen). Real-time PCR was performed using the SYBR-Green PCR Master mix (Applied Biosystems). The levels of expression of respective genes were normalized to corresponding GAPDH values and are shown as fold change relative to the value of the control sample. All the samples were done in triplicate. The sequences correspond to SEQ ID NOs:7-68, and are listed in order, i.e., SEQ ID NO:7 (OCT4 endogenous 5′ oligo), SEQ ID NO:8 (OCT4 endogenous 3′oligo), SEQ ID NO:9 (NANOG 5′ oligo), etc.

[3] = test system: CD34+ OE-MSC-derived cells; experiment: Hematopoietic colony forming assays; format: cell-based, human; settings: CD34+ cells accumulated during chronic inhibition of TGFβ
Procedure: Hematopoietic clonogenic assays were performed in 35-mm low adherent plastic dishes (Stem Cell Technologies, Vancouver, BC, Canada) using 1.1 ml/dish of methylcellulose semisolid medium (MethoCult H4434 classic, Stem Cell Technologies) according to the manufacturer's instructions. Briefly, enriched CD34+ OE-MSC-derived cells were sorted and immediately plated at various densities: 1.5×10^3/ml, 3×10^3/ml and 6×10^3/ml. All assays were performed in duplicate. Colony-forming units (CFU) and Burst-forming units (BFU) were scored after 7 to 14 days of incubation according to their colony morphology as erythroid (CFU-E and BFU-E), granulocyte, erythroid, macrophage, megakaryocyte (CFU-GEMM), granulocyte-macrophage (CFU-GM), and macrophage (CFU-M).

[4] = test system: Human MSCs; experiment: Western blotting of tyrosine phosphorylation of cellular proteins; format: cell-based; settings: TGF beta inhibition added to standard transgeneration conditions
Excerpt: TGF signaling involves a series of serine/threonine phosphorylation events, and its regulation is related to the activity of the MAPK-MEK-ERK pathway, a receptor tyrosine kinase (RTK) activated pathway. Thus, in order to address potential crosstalk involving tyrosine phosphorylation-dependent pathways Applicants investigated the effect of Applicants' different protocols on tyrosine phosphorylation of multiple cellular proteins by western blotting.

NC(=O)c1ccc(-c2nc(-c3ccc4c(c3)OCO4)c(-c3ccccn3)[nH]2)cc1 [SB431542]
generation of CD34+ cells ([1]; Sox2 transduction in combination with TGFβRI inhibitor (FIG. 4C)): does not impair | newly generated CD45+ cells ([1]; Sox2 transduction in combination with TGFβRI inhibitor, days 2-8 (FIG. 4D)): significant reduction | generation of CD34+CD45+ and CD45+ cell populations ([1]; in combination with Sox2 transduction, 4 days of transdetermination (FIG. 5E)): significantly abolishes | CD34+CD45+ cells ([1]; inhibition of the TGF beta pathway alone during ten days, compared to DMSO control, 25 μM): around 10% | CD34+ cells ([1]; inhibition of the TGFβ pathway, no Sox2 transduction, 25 μM): 10-25% | CD34+ cells ([1]; long-term inhibition of TGF beta pathway during a one month period in culture, compared to standard protocol): up to 75% | endogenous Sox2 and Oct4 expression ([2]; chronic inhibition of TGFβ signaling alone (FIG. 4B)): sufficient to upregulate | HPC-related markers at the mRNA level ([2]; chronic inhibition of TGFβ signaling alone, days 2-7 (FIG. 5C)): significant upregulation | early hematopoietic markers GATA2, Runx1, CD43 and CD41 ([2]; inhibition of TGF signaling): downregulation | endogenous Sox2 expression ([2]; inhibition of TGF signaling (Example 9)): downregulation | multilineage potential of sorted CD34+ cells [3]: retain multilineage potential | tyrosine phosphorylation of cellular proteins [4]: further enhances

N#CC(=C(/N)Sc1ccccc1N)/C(C#N)=C(\N)Sc1ccccc1N [U0126]
early CD34+ progenitors ([1]; chronic inhibition of ERK alone, no ectopic Sox2, 10 μM): up to 35%

— patent US20130309209A1, “FORMATION OF HEMATOPOIETIC PROGENITOR CELLS FROM MESENCHYMAL STEM CELLS” (Center for Regenerative Medicine of Barcelona, priority 2010, published 2013)
